Source: patent publication US20040110763A1, “Pyrazolopyridine compound and pharmaceutical use thereof” (priority 2000, published 2004)

Structure (SMILES) | melting point [°C]
CC(C)n1nc(-c2c(-c3ccccc3)nn3ccc(N4CCN(S(=O)(=O)c5ccccc5)CC4)cc23)ccc1=O [Example 111, 5-[4-(Phenylsulfonyl)-1-piperazinyl]-3-(3-oxo-2-isopropyl-2,3-dihydropyridazin-6-yl)-2-phenylpyrazolo[1,5-a]pyridine] | 219 to 220
CCOc1cccn2nc(-c3ccccc3)c(-c3ccc(=O)n(C(C)C)n3)c12 [Example 196, 4-ethoxy-3-(3-oxo-2-isopropyl-2,3-dihydropyridazin-6-yl)-2-phenylpyrazolo[1,5-a]pyridine] | 157 to 158
CC(C)n1nc(-c2c(-c3ccccc3)nn3ccc(N4CCN(c5ccccc5)CC4)cc23)ccc1=O [Example 99, 5-(4-Phenyl-1-piperazinyl)-3-(3-oxo-2-isopropyl-2,3-dihydropyridazin-6-yl)-2-phenylpyrazolo[1,5-a]pyridine] | > 240
CC(C)n1nc(-c2c(-c3ccccc3)nn3ccc(N4CCN(S(C)(=O)=O)CC4)cc23)ccc1=O [Example 110, 5-[4-(Methylsulfonyl)-1-piperazinyl]-3-(3-oxo-2-isopropyl-2,3-dihydropyridazin-6-yl)-2-phenylpyrazolo[1,5-a]pyridine] | 219 to 220
COc1ccn2nc(-c3ccccc3)c(-c3ccc(=O)n([C@H]4CCOC4)n3)c2c1 [Example 120, 5-Methoxy-3-[3-oxo-2-((3S)-tetrahydrofuran-3-yl)-2,3-dihydropyridazin-6-yl]-2-phenylpyrazolo[1,5-a]pyridine] | 194 to 195
CCCn1nc(-c2c(-c3ccc(F)cc3)nn3ccc(OC)cc23)ccc1=O [Example 132, 5-Methoxy-3-(3-oxo-2-propyl-2,3-dihydropyridazin-6-yl)-2-(4-fluorophenyl)pyrazolo[1,5-a]pyridine] | 190 to 191
CCCOc1cccn2nc(-c3ccccc3)c(-c3ccc(=O)n(C(C)C)n3)c12 [Example 197, 4-n-Propoxy-3-(3-oxo-2-isopropyl-2,3-dihydropyridazin-6-yl)-2-phenylpyrazolo [1,5-a]pyridine] | 176 to 177
COc1ccc(S(=O)(=O)Oc2ccn3nc(-c4ccccc4)c(-c4ccc(=O)n(C(C)C)n4)c3c2)cc1 [Example 7, 5-(4-methoxyphenylsulfonyl)oxy-3-(3-oxo-2-isopropyl-2,3-dihydropyridazin-6-yl)-2-phenylpyrazolo[1,5-a]pyridine] | 155 to 157
CC(C)n1nc(-c2c(-c3ccccc3)nn3ccc(C#Cc4ccccc4)cc23)ccc1=O [Example 138, 5-Phenylethynyl-3-(3-oxo-2-isopropyl-2,3-dihydropyridazin-6-yl)-2-phenylpyrazolo[1,5-a]pyridine] | 185 to 186
CC(C)n1nc(-c2c(-c3ccccc3)nn3c(N)cccc23)ccc1=O [Example 134, 7-Amino-3-(3-oxo-2-isopropyl-2,3-dihydropyridazin-6-yl)-2-phenylpyrazolo[1,5-a]pyridine] | 218 to 219
CC(C)n1nc(-c2c(-c3ccccc3)nn3ccc(N4CCN(C(=O)CN(C)C)CC4)cc23)ccc1=O [Example 114, 5-{4-[(dimethylamino)acetyl]-1-piperazinyl}-3-(3-oxo-2-isopropyl-2,3-dihydropyridazin-6-yl)-2-phenylpyrazolo[1,5-a]pyridine] | 129 to 130
CC(=O)Nc1cccc2c(-c3ccc(=O)n(C(C)C)n3)c(-c3ccccc3)nn12 [Example 187, 7-Acetylamino-3-(3-oxo-2-isopropyl-2,3-dihydropyridazin-6-yl)-2-phenylpyrazolo[1,5-a]pyridine] | 92 to 96
Nc1cccc2c(-c3ccc(=O)[nH]n3)c(-c3ccccc3)nn12 [Example 133, 7-amino-3-(3-oxo-2,3-dihydropyridazin-6-yl)-2-phenylpyrazolo[1,5-a]pyridine] | 157 to 159
CC(C)n1nc(-c2c(-c3ccccc3)nn3cccc(OCCN(C)C)c23)ccc1=O [Example 198, 4-(2-(Dimethylamino)ethoxy)-3-(3-oxo-2-isopropyl-2,3-dihydropyridazin-6-yl)-2-phenylpyrazolo[1,5-a]pyridine] | 137 to 138

Further lines, results first:

melting point [°C] | Structure (SMILES)
161.5 to 162.5 | CCCOc1ccn2nc(-c3ccccc3)c(-c3ccc(=O)n(C(C)C)n3)c2c1 [Example 21, 5-Propoxy-3-(3-oxo-2-isopropyl-2,3-dihydropyridazin-6-yl)-2-phenylpyrazolo[1,5-a]pyridine]
162 to 163 | CC(C)n1nc(-c2c(-c3ccccc3)nn3ccc(OCCN4CCCC4=O)cc23)ccc1=O [Example 28, 5-[2-(2-Oxo-1-pyrrolidinyl)ethoxy]-3-(3-oxo-2-isopropyl-2,3-dihydropyridazin-6-yl)-2-phenylpyrazolo [1,5-a]pyridine]
193 to 194 | CC(C)n1nc(-c2c(-c3ccccc3)nn3ccc(C(=O)NCc4ccccn4)cc23)ccc1=O [Example 144, N-(2-Pyridinylmethyl)-3-(3-oxo-2-isopropyl-2,3-dihydropyridazin-6-yl)-2-phenylpyrazolo[1,5-a]pyridine-5-carboxamide]
199 to 200 | CC(C)C(=O)Nc1ccn2nc(-c3ccccc3)c(-c3ccc(=O)n(C(C)C)n3)c2c1 [Example 149, 5-(2-Methylpropanoylamino)-3-(3-oxo-2-isopropyl-2,3-dihydropyridazin-6-yl)-2-phenylpyrazolo[1,5-a]pyridine]
92.5 to 94.5 | CCN(CC)CCOc1ccn2nc(-c3ccccc3)c(-c3ccc(=O)n(C(C)C)n3)c2c1 [Example 25, 5-[2-(Diethylamino)ethoxy]-3-(3-oxo-2-isopropyl-2,3-dihydropyridazin-6-yl)-2-phenylpyrazolo[1,5-a]pyridine]
174 to 174.5 | CC(C)n1nc(-c2c(-c3ccccc3)nn3ccc(OCC(=O)OCc4ccccc4)cc23)ccc1=O [Example 32, Benzyl {[3-(3-oxo-2-isopropyl-2,3-dihydropyridazin-6-yl)-2-phenylpyrazolo[1,5-a]pyridin-5-yl]oxy}acetate]
192 to 193 | CC(C)n1nc(-c2c(-c3ccccc3)nn3ccc(C(=O)NCc4cccnc4)cc23)ccc1=O [Example 87, N-(3-Pyridinylmethyl)-3-(3-oxo-2-isopropyl-2,3-dihydropyridazin-6-yl)-2-phenylpyrazolo[1,5-a]pyridine-5-carboxamide]
202 to 203 | CC(C)n1nc(-c2c(-c3ccccc3)nn3ccc(C#N)cc23)ccc1=O [Example 71, 3-(3-oxo-2-isopropyl-2,3-dihydropyridazin-6-yl)-2-phenylpyrazolo[1,5-a]pyridine-5-carbonitrile]
174 | CCCn1nc(-c2c(-c3ccccc3)nn3ccc(OC)cc23)ccc1=O [Example 117, 5-Methoxy-3-(3-oxo-2-propyl-2,3-dihydropyridazin-6-yl)-2-phenylpyrazolo[1,5-a]pyridine]
213 to 214 | COC(=O)Nc1ccn2nc(-c3ccccc3)c(-c3ccc(=O)n(C(C)C)n3)c2c1 [Example 151, Methyl 3-(3-oxo-2-isopropyl-2,3-dihydropyridazin-6-yl)-2-phenylpyrazolo[1,5-a]pyridin-5-ylcarbamate]
146 to 148 | CC(C)n1nc(-c2c(-c3ccccc3)nn3ccc(OCC(=O)NC4CCC(O)CC4)cc23)ccc1=O (stereo not shown) [Example 64, N-(4-Hydroxycyclohexyl)-2-{[3-(3-oxo-2-isopropyl-2,3-dihydropyridazin-6-yl)-2-phenylpyrazolo[1,5-a]pyridin-5-yl]oxy}acetamide]
196 to 197 | CC(C)n1nc(-c2c(-c3ccccc3)nn3ccc(N)cc23)ccc1=O [Example 146, 5-amino-3-(3-oxo-2-isopropyl-2,3-dihydropyridazin-6-yl)-2-phenylpyrazolo[1,5-a]pyridine]
225 to 226 | CNC(=O)c1ccn2nc(-c3ccccc3)c(-c3ccc(=O)n(C(C)C)n3)c2c1 [Example 88, N-Methyl-3-(3-oxo-2-isopropyl-2,3-dihydropyridazin-6-yl)-2-phenylpyrazolo[1,5-a]pyridine-5-carboxamide]
194 to 195 | COc1ccn2nc(-c3ccccc3)c(-c3ccc(=O)n([C@@H]4CCOC4)n3)c2c1 [Example 119, 5-Methoxy-3-[3-oxo-2-((3R)-tetrahydrofuran-3-yl)-2,3-dihydropyridazin-6-yl]-2-phenylpyrazolo[1,5-a]pyridine]
166 to 167.5 | COc1cccc(CNC(=O)COc2ccn3nc(-c4ccccc4)c(-c4ccc(=O)n(C(C)C)n4)c3c2)c1 [Example 59, 2-{[3-(3-Oxo-2-isopropyl-2,3-dihydropyridazin-6-yl)-2-phenylpyrazolo[1,5-a]pyridin-5-yl]oxy}-N-(3-methoxybenzyl)acetamide]
199 to 200 | CC(C)n1nc(-c2c(-c3ccccc3)nn3ccc(OCC(=O)NC4CC4)cc23)ccc1=O [Example 61, N-Cyclopropyl-2-{[3-(3-oxo-2-isopropyl-2,3-dihydropyridazin-6-yl)-2-phenylpyrazolo[1,5-a]pyridin-5-yl]oxy}acetamide]
189 to 190 | CC(C)n1nc(-c2c(-c3ccccc3)nn3ccc(C(=O)N4CCCC4)cc23)ccc1=O [Example 73, 5-(1-pyrrolidinylcarbonyl)-3-(3-oxo-2-isopropyl-2,3-dihydropyridazin-6-yl)-2-phenylpyrazolo[1,5-a]pyridine]
138 to 139 | COCC(C)n1nc(-c2c(-c3ccccc3)nn3ccc(OC)cc23)ccc1=O (stereo not shown) [Example 121, 5-Methoxy-3-[3-oxo-2-(1-methoxy-2-propyl)-2,3-dihydropyridazin-6-yl]-2-phenylpyrazolo[1,5-a]pyridine]
145 to 146 | CC(C)n1nc(-c2c(-c3ccccc3)nn3ccc(OCc4cccnc4)cc23)ccc1=O [Example 20, 5-(3-Pyridinylmethoxy)-3-(3-oxo-2-isopropyl-2,3-dihydropyridazin-6-yl)-2-phenylpyrazolo[1,5-a]pyridine]
239 to 240 | CC(C)n1nc(-c2c(-c3ccccc3)nn3ccc(C(=O)NC4CCCCCC4)cc23)ccc1=O [Example 140, N-Cycloheptyl-3-(3-oxo-2-isopropyl-2,3-dihydropyridazin-6-yl)-2-phenylpyrazolo[1,5-a]pyridine-5-carboxamide]
